Assays:
[1] = test system: L428 cells; assay: Xenograft in NSG mice, HE staining and immunohistochemistry; assay type: in vivo
From the text: Immunodeficient NOD-SCID-gammac−/− (NSG) mice aged 5 to 6 weeks were purchased from Charles River (NOD.Cg-Prkdcscid Il2rgtm1Wjl/SzJ). The mice arrived two weeks before the beginning of the experiments and were housed in micro-isolator cages during the entire course of the study. Immediately prior to the injection of Hodgkin lymphoma cells, mice were exposed to 3 Gy gamma irradiation using an IBL637 ^137Cs irradiator at a dose rate of 0.61 Gy/min. From 10^3 to 10^6 cells, either from the original cell lines or following amplification, were injected intravenously via the retro-orbital sinus. The mice were sacrificed by cervical dislocation and different organs were analysed and tumoural infiltration examined using multiple techniques.
Two independent experiments were performed to investigate the dose-effect of EDO-S101 in NSG mice eight weeks after xenografting with L428 cells as in Example 8. The aim of the protocol shown in FIG. […]
The mice were sacrificed by cervical dislocation. The sampled organs consisted of the eyes (site of injection), liver, spleen and bone marrow. Following dissection of different organs, including tumours, the first portion was used for flow cytometry (FACS) and cytogenetic analyses while the second was fixed in 4% paraformaldehyde (PFA) for immunohistochemistry (IHC). To obtain a single cell suspension, the tissues were first cut into pieces. Thereafter, the cells were physically disaggregated using an 80 μm nylon cell strainer and filtered a second time through a 70 μm nylon cell strainer (BD Biosciences, Erembodegem, Belgium).
Organs were fixed in 4% PFA, trimmed and post-fixed in 70° ethanol. They were then briefly processed using a vacuum inclusion processor and paraffin blocks were prepared. Five micrometer-thick sections were cut from these blocks and the resulting sections were stained with hemotoxylin-eosine (H&E) for histopathological analysis. In addition, IHC was carried out on of the totality of liver and spleen specimens for confirmation of the spread of engrafted cells. The search for single cells or small groups of grafted Hodgkin lymphoma cells was performed using an anti-CD30 antibody (DAKO, France; 1:40, EDTA pH9 pre-treatment) and the Ventana Discovery XT IHC system. Apoptosis and tumour necrosis were analysed.
Microscopic findings were assigned a severity score based upon the following scale: “0”=within physiological limits, “1”=minimal, “2”=mild, “3”=moderate, “4”=marked, “5”=severe. This severity score was attributed according to the size and number of observed lesions.

[2] = test system: L1236 cell line; assay: Cell cycle checkpoint proteins and gene expression; assay type: cell-based, human; conditions: EDO-S101 alone
Experimental: 1.56 μM of EDO-S101 was administered to two Hodgkin lymphoma cell lines, the bendamustine naïve cell line L1236 and the bendamustine resistant cell line R100. In a second experiment, Brentuximab Vedotin was administered at a concentration of 3.12 μg/ml to the L1236 cell line and at a concentration of 0.39 μg/ml to the R100 cell line. Finally, in a third experiment EDO-S101 and Brentuximab Vedotin were administered in combination to each of the two cell lines at the same concentrations that they were administered in the monotherapy experiments.

[3] = two doses of 60 mg/kg three weeks apart

## Cn1c(CCCCCCC(=O)NO)nc2cc(N(CCCl)CCCl)ccc21 [EDO-S101]
[1]; 1 * 60 mg/kg, % of mice
  Liver: Tumour cell necrosis/apoptosis: Severe: 0.0%
  Liver: Tumour infiltration: Marked: 0.0%
  Liver: Tumour infiltration: Mild: 25.0%
  Liver: Tumour infiltration: Minimal: 25.0%
  Liver: Tumour infiltration: Moderate: 25.0%
  Liver: Tumour infiltration: No: 25.0%
  Liver: Tumour infiltration: Overall: 75.0%
  Liver: Tumour infiltration: Severe: 0.0%
  Tumour presence: Animals with tumour infiltration in liver and in the injection area: 75.0%
  Tumour presence: Overall: 100.0%
[1]; 2 * 60 mg/kg, % of mice
  Injection site: Tumour cell necrosis/apoptosis: Marked: 33.3%
  Injection site: Tumour cell necrosis/apoptosis: Mild: 66.7%
  Injection site: Tumour cell necrosis/apoptosis: Minimal: 0.0%
  Injection site: Tumour cell necrosis/apoptosis: Moderate: 0.0%
  Injection site: Tumour cell necrosis/apoptosis: No: 0.0%
  Injection site: Tumour cell necrosis/apoptosis: Overall: 100.0%
  Injection site: Tumour cell necrosis/apoptosis: Severe: 0.0%
  Injection site: Tumour infiltration: Marked: 11.1%
  Injection site: Tumour infiltration: Mild: 0.0%
  Injection site: Tumour infiltration: Minimal: 0.0%
  Injection site: Tumour infiltration: Moderate: 0.0%
  Injection site: Tumour infiltration: No: 0.0%
  Injection site: Tumour infiltration: Overall: 11.1%
  Injection site: Tumour infiltration: Severe: 0.0%
  Liver: Tumour cell necrosis/apoptosis: Marked: 0.0%
  Liver: Tumour cell necrosis/apoptosis: Mild: 0.0%
  Liver: Tumour cell necrosis/apoptosis: Minimal: 0.0%
  Liver: Tumour cell necrosis/apoptosis: Moderate: 0.0%
  Liver: Tumour cell necrosis/apoptosis: No: 100.0%
  Liver: Tumour cell necrosis/apoptosis: Overall: 0.0%
  Liver: Tumour cell necrosis/apoptosis: Severe: 0.0%
  Liver: Tumour infiltration: Marked: 0.0%
  Liver: Tumour infiltration: Mild: 11.1%
  Liver: Tumour infiltration: Minimal: 33.3%
  Liver: Tumour infiltration: Moderate: 0.0%
  Liver: Tumour infiltration: No: 55.6%
  Liver: Tumour infiltration: Overall: 44.4%
  Liver: Tumour infiltration: Severe: 0.0%
  Tumour presence: Animals with tumour infiltration in liver and in the injection area: 0.0%
  Tumour presence: Overall: 55.6%
[1]; single 60 or 80 mg/kg or two injections of 60 mg/kg
  severity of tumoural cell infiltration: significant decrease in the severity of tumoural cell infiltration
[1]; single dose of 60 mg/kg
  tumour regression: significant tumour regression
[1]; single dose of 60 mg/kg, 60 mg/kg
  mice with tumour lesions: only one mouse had moderate tumour lesions
[1]; two administrations of 60 mg/kg, versus control and single 60 mg/kg
  tumour regression: Significant tumour regression
[1]; [3]
  infiltration in the liver: Only one mouse exhibited a moderate level of infiltration in the liver
  tumours in organs (liver, spleen, bone marrow): No tumours were observed in any organs
[2]
  effect on cell cycle checkpoint proteins: activated cell cycle checkpoint proteins
